From patent publication US9434704B2, “Compositions and methods for the treatment of neurological degenerative disorders” (CELLIX BIO PRIVATE LIMITED, priority 2012, dated 2016) come the findings set out here.

One data set in a line: in vivo. As to conditions: female, Wistar, rat, ip, 8 mg/kg.
For data set [1] the following is noted: rat, in vivo, 8 mg/kg.

Values joined by “and” are separate entries in the source; they are usually repeats but may differ in a detail not shown here. Equal entries are not always repeated.

Regarding `CC(OC(=O)CCCC[C@]1(C)CCSS1)OC(=O)Nc1nc2ccc(OC(F)(F)F)cc2s1` (stereo partly shown) [Formula II (2-1)], in “in vivo”, the Cmax (commonly the maximum level reached in the sampled fluid or tissue) is 10200 ng/g and 3380 ng/mL. Further, the half-life (in general, the time in which the quantity being followed falls by half) is 790 min in “in vivo” (t1/2 in brain), 790 min in the data set “in vivo” (t1/2 in cervical SC), 662 min in the data set “in vivo” (t1/2 in plasma) and 662 min in the data set “in vivo” (t1/2 in thoracic SC). In data set [1] (female, Wistar), the “time to reach spinal cord (SC)” value is given as ≤ 15 min. Further, the “time of Cmax in SC” value in data set [1] is 1.5 h. The “absorption after I.P. administration” value in data set [1] (ip) is listed as “readily absorbed”. The “time of Cmax in brain” value in data set [1] (ip) is 0.7 h. In addition, the “time of Cmax in plasma” value in data set [1] (ip) worked out at 0.5 h.
